Here are results for one compound from paper PMC3692431, “Anticonvulsant Activity of B2, an Adenosine Analog, on Chemical Convulsant-Induced Seizures” (PLoS ONE, 2013).

Assay [1] concerns the target T1, A2A adenosine receptor (Rattus norvegicus, UniProt P30543).
T1 construct: from tissue; host or cells: striatum of male Wistar rats
Nature of the assay: Radioligand binding, [3H]MSX-2 displacement in rat striatal membranes. Particulars: 0.75 nM [3H]MSX-2. On the procedure: Male Wistar rats were sacrificed. The cerebral cortex and striatum were then removed and homogenized in 10 volumes of ice-cold 50 mM Tris–HCl buffer (pH 7.4). The homogenates were centrifuged (48,000 ×g) at 4°C for 10 min, the supernatant decanted, and the pellet resuspended in the same volume of buffer before being centrifuged again. The final pellets were resuspended in 50 mM Tris–HCl buffer containing adenosine deaminase (1.2 U per mg of protein) to remove endogenous adenosine.
Binding affinity at adenosine A2A receptors was tested in rat striatal membranes using 0.75 nM [^3H]MSX-2 (104.8 Ci/mmol). The binding assay was carried out in Tris–HCl buffer (50 mM, pH 7.4) as previously described, [12]. Briefly, assays were performed by first incubating the mixtures on a shaking water-bath at 25°C for 30 min. Termination of the incubation was performed by rapid filtration through GF/B glass fiber filters. The radioactivity on the filter was measured using a scintillation counter. […] Inhibition curves were determined using eight different concentrations ranging from 10^−5 to 10^−8 M. The inhibition constants (Ki) were calculated using an equation from Cheng and Prusoff.

Assay [2] deals with KA-induced seizures. Nature of the assay: KA-induced seizures in mice. The class given is in vivo. Particulars: KA 0.7 µg i.c.v. On the procedure: KA was dissolved in saline and the pH was adjusted to neutrality. The final concentration of KA was 0.7 µg/µl, and the convulsant dose was 1 µl (i.c.v.). […] The selective adenosine receptor antagonist DPCPX or SCH58261 was administered (i.p.) 5 min before administration of B2 or vehicle.
The left lateral ventricle (0.6 mm posterior, 1.9 mm lateral, and 2.1 mm ventral to bregma) was cannulated as described. After a 7-day recovery period, mice were injected with either B2 (1.25, 5, 20 mg/kg) or vehicle. Twenty minutes later, an intracerebroventricular injection of KA (0.7 µg/µl, 1 µl) was administered without anesthesia. The animals were then observed for a minimum of 60 min. Seizure severity was determined according to the scoring system described by Racine. At the end of the experiment, cannulae placement was verified.

Assay [3] deals with rat adenosine A2A receptors. Set-up: method as in PMID 22242450. Particulars: cited from earlier work.
The test system of assay [4] is PC12 cell. Set-up: method as in PMID 22242450. Particulars: cited from earlier work.

T1 sequence (P30543 whole entry): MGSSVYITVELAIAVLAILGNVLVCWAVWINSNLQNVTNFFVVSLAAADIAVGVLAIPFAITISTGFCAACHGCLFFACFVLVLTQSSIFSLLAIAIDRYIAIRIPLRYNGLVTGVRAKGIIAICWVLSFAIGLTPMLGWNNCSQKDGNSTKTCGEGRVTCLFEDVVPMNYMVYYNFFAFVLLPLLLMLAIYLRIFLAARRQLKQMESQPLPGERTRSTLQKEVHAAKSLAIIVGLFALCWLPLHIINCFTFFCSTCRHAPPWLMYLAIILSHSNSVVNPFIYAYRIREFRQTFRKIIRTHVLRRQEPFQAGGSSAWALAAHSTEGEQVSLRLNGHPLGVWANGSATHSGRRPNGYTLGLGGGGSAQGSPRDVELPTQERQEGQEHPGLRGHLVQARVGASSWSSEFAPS

Broadly, the Ki is a measure of affinity in units of concentration, obtained from inhibition or displacement. Read a low Ki as tighter binding. In the case of `COc1cc(CNc2ncnc3c2ncn3[C@@H]2O[C@H](CO)[C@@H](O)[C@H]2O)ccc1O` [B2, N^6-(3-methoxyl-4-hydroxybenzyl) adenine riboside], in assay [1], the Ki was found to be 0.37 µM. In addition, the average seizure duration in assay [2] (B2 1.25 mg/kg i.p.) was found to be 5.3 ± 0.8 min; in assay [2] (B2 5 mg/kg i.p.) it was 3.7 ± 0.7 min; in assay [2] (B2 20 mg/kg i.p.), 3.3 ± 1.0 min. In addition, in assay [3], the “affinity for rat adenosine A2A receptors” value is given as “moderate affinity”. For the same compound, in assay [4], the “PC12 cell survival in serum deprivation-induced apoptosis” value was “remarkably increased”.
